The structures appear in SMILES notation.

T1 sequence (Q15910 whole entry): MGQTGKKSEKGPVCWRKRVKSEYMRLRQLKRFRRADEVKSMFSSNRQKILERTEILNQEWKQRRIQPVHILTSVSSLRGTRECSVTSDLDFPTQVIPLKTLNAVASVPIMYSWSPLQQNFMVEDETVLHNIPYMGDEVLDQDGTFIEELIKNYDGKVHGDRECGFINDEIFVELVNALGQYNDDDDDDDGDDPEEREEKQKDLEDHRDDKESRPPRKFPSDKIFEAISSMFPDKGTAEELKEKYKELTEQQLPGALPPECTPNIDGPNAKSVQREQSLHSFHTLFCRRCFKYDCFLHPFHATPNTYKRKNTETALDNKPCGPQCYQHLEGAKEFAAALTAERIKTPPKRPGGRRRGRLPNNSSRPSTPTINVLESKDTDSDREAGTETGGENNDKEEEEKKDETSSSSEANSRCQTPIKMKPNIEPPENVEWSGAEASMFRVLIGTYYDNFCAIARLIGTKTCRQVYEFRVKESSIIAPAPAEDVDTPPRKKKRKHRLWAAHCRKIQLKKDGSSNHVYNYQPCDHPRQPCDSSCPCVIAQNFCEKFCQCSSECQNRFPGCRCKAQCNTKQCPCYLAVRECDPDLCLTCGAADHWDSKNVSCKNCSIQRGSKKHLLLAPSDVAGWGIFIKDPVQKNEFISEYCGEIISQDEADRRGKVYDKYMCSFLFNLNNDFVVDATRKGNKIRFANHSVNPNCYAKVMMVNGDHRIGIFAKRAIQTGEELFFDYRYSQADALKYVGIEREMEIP
T1 sequence (O75530 whole entry partner): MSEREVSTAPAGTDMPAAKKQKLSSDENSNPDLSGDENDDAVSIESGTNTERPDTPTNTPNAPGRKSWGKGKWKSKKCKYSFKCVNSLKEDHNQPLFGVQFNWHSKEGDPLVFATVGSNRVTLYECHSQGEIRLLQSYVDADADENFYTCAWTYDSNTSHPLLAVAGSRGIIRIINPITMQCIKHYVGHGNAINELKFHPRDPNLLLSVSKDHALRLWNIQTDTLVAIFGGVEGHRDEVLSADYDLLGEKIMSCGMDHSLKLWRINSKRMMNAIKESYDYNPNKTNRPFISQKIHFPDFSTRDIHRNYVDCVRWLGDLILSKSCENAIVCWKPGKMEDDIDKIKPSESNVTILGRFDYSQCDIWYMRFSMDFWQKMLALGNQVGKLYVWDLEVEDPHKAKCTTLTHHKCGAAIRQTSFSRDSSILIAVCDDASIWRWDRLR
T1 sequence (Q15022 whole entry partner): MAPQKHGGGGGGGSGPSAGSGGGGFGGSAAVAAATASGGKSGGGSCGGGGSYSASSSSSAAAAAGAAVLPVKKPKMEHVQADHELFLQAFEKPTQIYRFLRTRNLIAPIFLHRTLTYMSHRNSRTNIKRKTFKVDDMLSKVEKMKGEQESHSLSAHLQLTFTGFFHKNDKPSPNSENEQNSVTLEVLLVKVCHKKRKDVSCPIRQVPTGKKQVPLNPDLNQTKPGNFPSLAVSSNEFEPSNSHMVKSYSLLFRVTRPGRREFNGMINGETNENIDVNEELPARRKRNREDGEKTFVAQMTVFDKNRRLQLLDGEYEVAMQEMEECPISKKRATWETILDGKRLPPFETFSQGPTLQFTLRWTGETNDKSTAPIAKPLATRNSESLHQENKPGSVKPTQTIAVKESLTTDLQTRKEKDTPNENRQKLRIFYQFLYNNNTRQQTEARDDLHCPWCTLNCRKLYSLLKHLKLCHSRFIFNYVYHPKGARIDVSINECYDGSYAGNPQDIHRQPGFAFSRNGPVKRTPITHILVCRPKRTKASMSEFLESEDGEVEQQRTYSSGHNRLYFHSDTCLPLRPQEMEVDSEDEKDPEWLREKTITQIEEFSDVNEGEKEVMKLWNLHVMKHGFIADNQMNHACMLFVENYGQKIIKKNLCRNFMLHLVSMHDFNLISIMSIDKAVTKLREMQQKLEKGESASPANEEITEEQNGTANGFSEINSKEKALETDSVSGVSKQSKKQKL

This experiment has as its target T1, EZH2 (Homo sapiens, UniProt Q15910).
T1 construct: Protocol of the Cellular Assay of Target Protein Degradation (VCaP Cells, ELISA); endogenous in cells; host or cells: VCaP cells
As to the kind of experiment: Cellular assay of target protein degradation (VCaP cells, ELISA). The settings on record: 4 hours, protein degradation range at indicated concentration (relative to DMSO control). It is filed as cell-based. The procedure: Protocol of the Cellular Assay of Target Protein Degradation (VCaP Cells, ELISA).
For detection Cell Signaling PathScan Sandwich ELISA Catalog #12850 Lot 11 was used. VCaP cells were cultured in ATCC DMEM+ATCC FBS and plated 40,000/well 100 μl/well in RPMI P/S with 5% CSS Omega (bovine) serum into a 96 well plate. The cells were grown for a minimum of 3 days, dosed with compounds in 0.1% DMSO (diluted with 5% CSS) and incubated with aspiration for 4 hours. 100 μl of 1× Cell Signaling lysis buffer #9803 (36 mL dH2O+4 mL Cell Signaling lysis buffer) was added. The incubation was placed on cold room shaker for 10 minutes at speed 8-9. 5 μl to 100 μL of Diluent was transferred to ELISA plate (0.15 μg/mL−0.075 μg/mL) and stored at 4° C. overnight on cold room shaker speed 5 (gentle swirl) and then shaken next morning at 37° C. for 30 minutes. The preparation was washed 4×200 μl with ELISA wash buffer and aspirated with eight-channel aspirator. 100 μl/well of target protein detection antibody was added after, which the preparation was covered and shaken at 37° C. for 1 hour. 100 μl TMB was added, and the mixture was shaken for 5 min while under observation. When TMB turned light blue, 100 μl of Stop solution was added, and the mixture was shaken and read at 450 nm. Also read at 562 nm for background subtraction.
As to `Cc1cc(C)c(CNC(=O)c2c(C)n(C(C)C3CCN(C(=O)COCCOCCOCC(=O)N[C@H](C(=O)N4C[C@H](O)C[C@H]4C(=O)NCc4ccc(-c5scnc5C)cc4)C(C)(C)C)CC3)c3ccccc23)c(=O)[nH]1` (stereo partly drawn) [Compound 9, N-[(4,6-dimethyl-2-oxo-1,2-dihydropyridin-3-yl)methyl]-1-{1-[1-(2-{2-[2-({[(2S)-1-[(2S,4R)-4-hydroxy-2-({[4-(4-methyl-1,3-thiazol-5-yl)phenyl]methyl}carbamoyl)pyrrolidin-1-yl]-3,3-dimethyl-1-oxobutan-2-yl]carbamoyl}methoxy)ethoxy]ethoxy}acetyl)piperidin-4-yl]ethyl}-2-methyl-1H-indole-3-carboxamide], the “percent target protein degradation class” value is “B (B = degradation between 30% and 60%)”. The same measure for `Cc1cc(C)c(CNC(=O)c2c(C)n(C(C)C3CCN(C(=O)COCCOCCOCCOCCNc4cccc5c4C(=O)N(C4CCC(=O)NC4=O)C5=O)CC3)c3ccccc23)c(=O)[nH]1` (stereo not shown) [Compound 10, N-[(4,6-dimethyl-2-oxo-1,2-dihydropyridin-3-yl)methyl]-1-[1-(1-{1-[2-(2,6-dioxopiperidin-3-yl)-1,3-dioxo-2,3-dihydro-1H-isoindol-4-yl]-4,7,10,13-tetraoxa-1-azapentadecanoyl}piperidin-4-yl)ethyl]-2-methyl-1H-indole-3-carboxamide]: “B (B = degradation between 30% and 60%)”; for `Cc1cc(C)c(CNC(=O)c2c(C)n(C(C)C3CCN(C(=O)COCCOCCOCCOCCOCC(=O)N[C@H](C(=O)N4C[C@H](O)C[C@H]4C(=O)NCc4ccc(-c5scnc5C)cc4)C(C)(C)C)CC3)c3ccccc23)c(=O)[nH]1` (stereo partly drawn) [Compound 11, N-[(4,6-dimethyl-2-oxo-1,2-dihydropyridin-3-yl)methyl]-1-{1-[1-(1-{[(2S)-1-[(2S,4R)-4-hydroxy-2-({[4-(4-methyl-1,3-thiazol-5-yl)phenyl]methyl}carbamoyl)pyrrolidin-1-yl]-3,3-dimethyl-1-oxobutan-2-yl]carbamoyl}-2,5,8,11,14-pentaoxahexadecanoyl)piperidin-4-yl]ethyl}-2-methyl-1H-indole-3-carboxamide]: “B (B = degradation between 30% and 60%)”. Turning to `Cc1cc(C)c(CNC(=O)c2c(C)n(C(C)C3CCN(C(=O)COCCOCCOCCOCCOCCNc4cccc5c4C(=O)N(C4CCC(=O)NC4=O)C5=O)CC3)c3ccccc23)c(=O)[nH]1` (stereo not shown) [Compound 12, N-[(4,6-dimethyl-2-oxo-1,2-dihydropyridin-3-yl)methyl]-1-[1-(1-{1-[2-(2,6-dioxopiperidin-3-yl)-1,3-dioxo-2,3-dihydro-1H-isoindol-4-yl]-4,7,10,13,16-pentaoxa-1-azaoctadecanoyl}piperidin-4-yl)ethyl]-2-methyl-1H-indole-3-carboxamide], the “percent target protein degradation class” value was “B (B = degradation between 30% and 60%)”. The same measure for `CCN(c1cc(-c2ccc(OCCOCCOCCOCC(=O)N[C@H](C(=O)N3C[C@H](O)C[C@H]3C(=O)NCc3ccc(-c4scnc4C)cc3)C(C)(C)C)cc2)cc(C(=O)NCc2c(C)cc(C)[nH]c2=O)c1C)C1CCOCC1` [Compound 13, (2S,4R)-1-[(2S)-2-{1-[4-(3-{[(4,6-dimethyl-2-oxo-1,2-dihydropyridin-3-yl)methyl]carbamoyl}-5-[ethyl(oxan-4-yl)amino]-4-methylphenyl)phenyl]-1,4,7,10-tetraoxadodecan-12-amido}-3,3-dimethylbutanoyl]-4-hydroxy-N-{[4-(4-methyl-1,3-thiazol-5-yl)phenyl]methyl}pyrrolidine-2-carboxamide]: “B (B = degradation between 30% and 60%)”; for `CCN(c1cc(-c2ccc(OCCOCCOCCOCCOCCOCC(=O)N[C@H](C(=O)N3C[C@H](O)C[C@H]3C(=O)NCc3ccc(-c4scnc4C)cc3)C(C)(C)C)cc2)cc(C(=O)NCc2c(C)cc(C)[nH]c2=O)c1C)C1CCOCC1` [Compound 15, (2S,4R)-1-[(2S)-2-{1-[4-(3-{[(4,6-dimethyl-2-oxo-1,2-dihydropyridin-3-yl)methyl]carbamoyl}-5-[ethyl(oxan-4-yl)amino]-4-methylphenyl)phenyl]-1,4,7,10,13,16-hexaoxaoctadecan-18-amido}-3,3-dimethylbutanoyl]-4-hydroxy-N-{[4-(4-methyl-1,3-thiazol-5-yl)phenyl]methyl}pyrrolidine-2-carboxamide]: “B (B = degradation between 30% and 60%)”. The same measure for `CCN(c1cc(-c2ccc(OCCOCCOCCOCCOCCOCCOCC(=O)N[C@H](C(=O)N3C[C@H](O)C[C@H]3C(=O)NCc3ccc(-c4scnc4C)cc3)C(C)(C)C)cc2)cc(C(=O)NCc2c(C)cc(C)[nH]c2=O)c1C)C1CCOCC1` [Compound 16, (2S,4R)-1-[(2S)-2-{1-[4-(3-{[(4,6-dimethyl-2-oxo-1,2-dihydropyridin-3-yl)methyl]carbamoyl}-5-[ethyl(oxan-4-yl)amino]-4-methylphenyl)phenyl]-1,4,7,10,13,16,19-heptaoxahenicosan-21-amido}-3,3-dimethylbutanoyl]-4-hydroxy-N-{[4-(4-methyl-1,3-thiazol-5-yl)phenyl]methyl}pyrrolidine-2-carboxamide]: “B (B = degradation between 30% and 60%)”.

For the molecule `CCN(c1cc(-c2ccc(OCCOCCOCCOCCNc3cccc4c3C(=O)N(C3CCC(=O)NC3=O)C4=O)cc2)cc(C(=O)NCc2c(C)cc(C)[nH]c2=O)c1C)C1CCOCC1` (stereo not shown) [Compound 17, N-[(4,6-dimethyl-2-oxo-1,2-dihydropyridin-3-yl)methyl]-5-[4-({1-[2-(2,6-dioxopiperidin-3-yl)-1,3-dioxo-2,3-dihydro-1H-isoindol-4-yl]-4,7,10-trioxa-1-azadodecan-12-yl}oxy)phenyl]-3-[ethyl(oxan-4-yl)amino]-2-methylbenzamide], the “percent target protein degradation class” value was “B (B = degradation between 30% and 60%)”. The same measure for `CCN(c1cc(-c2ccc(OCCOCCOCCOCCOCCNc3cccc4c3C(=O)N(C3CCC(=O)NC3=O)C4=O)cc2)cc(C(=O)NCc2c(C)cc(C)[nH]c2=O)c1C)C1CCOCC1` (stereo not shown) [Compound 18, N-[(4,6-dimethyl-2-oxo-1,2-dihydropyridin-3-yl)methyl]-5-[4-({1-[2-(2,6-dioxopiperidin-3-yl)-1,3-dioxo-2,3-dihydro-1H-isoindol-4-yl]-4,7,10,13-tetraoxa-1-azapentadecan-15-yl}oxy)phenyl]-3-[ethyl(oxan-4-yl)amino]-2-methylbenzamide]: “B (B = degradation between 30% and 60%)”. Regarding `CCN(c1cc(-c2ccc(OCCOCCOCCOCCOCCOCCNc3cccc4c3C(=O)N(C3CCC(=O)NC3=O)C4=O)cc2)cc(C(=O)NCc2c(C)cc(C)[nH]c2=O)c1C)C1CCOCC1` (stereo not shown) [Compound 19, N-[(4,6-dimethyl-2-oxo-1,2-dihydropyridin-3-yl)methyl]-5-[4-({1-[2-(2,6-dioxopiperidin-3-yl)-1,3-dioxo-2,3-dihydro-1H-isoindol-4-yl]-4,7,10,13,16-pentaoxa-1-azaoctadecan-18-yl}oxy)phenyl]-3-[ethyl(oxan-4-yl)amino]-2-methylbenzamide], the “percent target protein degradation class” value is “B (B = degradation between 30% and 60%)”. Consider `CCN(c1cc(-c2ccc(OCCOCCOCCOCCOCCOCCOCCNc3cccc4c3C(=O)N(C3CCC(=O)NC3=O)C4=O)cc2)cc(C(=O)NCc2c(C)cc(C)[nH]c2=O)c1C)C1CCOCC1` (stereo not shown) [Compound 20, N-[(4,6-dimethyl-2-oxo-1,2-dihydropyridin-3-yl)methyl]-5-[4-({1-[2-(2,6-dioxopiperidin-3-yl)-1,3-dioxo-2,3-dihydro-1H-isoindol-4-yl]-4,7,10,13,16,19-hexaoxa-1-azahenicosan-21-yl}oxy)phenyl]-3-[ethyl(oxan-4-yl)amino]-2-methylbenzamide], for which the “percent target protein degradation class” value is “B (B = degradation between 30% and 60%)”. The same measure for `CCN(c1cc(-c2cccc(OCCOCCOCCOCCOCCOCCNc3cccc4c3C(=O)N(C3CCC(=O)NC3=O)C4=O)c2)cc(C(=O)NCc2c(C)cc(C)[nH]c2=O)c1C)C1CCOCC1` (stereo not shown) [Compound 21, N-[(4,6-dimethyl-2-oxo-1,2-dihydropyridin-3-yl)methyl]-5-[3-({1-[2-(2,6-dioxopiperidin-3-yl)-1,3-dioxo-2,3-dihydro-1H-isoindol-4-yl]-4,7,10,13,16-pentaoxa-1-azaoctadecan-18-yl}oxy)phenyl]-3-[ethyl(oxan-4-yl)amino]-2-methylbenzamide]: “B (B = degradation between 30% and 60%)”. Take `CCN(c1cc(-c2ccc(OCCOCCOCCOCCOCCOCCOCCOCCNc3cccc4c3C(=O)N(C3CCC(=O)NC3=O)C4=O)cc2)cc(C(=O)NCc2c(C)cc(C)[nH]c2=O)c1C)C1CCOCC1` (stereo not shown) [Compound 22, N-[(4,6-dimethyl-2-oxo-1,2-dihydropyridin-3-yl)methyl]-5-[4-({1-[2-(2,6-dioxopiperidin-3-yl)-1,3-dioxo-2,3-dihydro-1H-isoindol-4-yl]-4,7,10,13,16,19,22-heptaoxa-1-azatetracosan-24-yl}oxy)phenyl]-3-[ethyl(oxan-4-yl)amino]-2-methylbenzamide]: the “percent target protein degradation class” value is “B (B = degradation between 30% and 60%)”.
